Here are results for ten molecules from patent US20060067923A1, “Preventing agent against drug-resistant bacterial infection” (priority 2004, published 2006).

In brackets after ≈: the same amount, converted by molar mass. Where two headings read alike, the source gives them in different places. Positions of bridges follow the written chain, without caps; N, C: chain ends. Non-standard residues stand in square brackets, D forms with d. Residues, ends and D or L forms follow the SMILES beside them. *: point of attachment. Ileψ(thiazoline)Cys = CC[C@H](C)[C@H](N)C1=N[C@H](C(=O)*)CS1; dOrn = NCCC[C@@H](N)C(=O)O

For this assay, the system named is Enterococcus faecalis ATCC 51299 strain. Kind of assay: MIC levels of antibiotics against Vancomycin-resistant bacteria. Type of assay: cell-based. From the text:
Enterococcus faecalis ATCC 51299 strain was used as Vancomycin-resistant bacteria.

Setting [1] is: Enterococcus faecalis, ATCC51299, 16 h; read-out: MIC levels after 16 hours of culture.
The mark [2] stands for this setting: Enterococcus faecalis, ATCC51299, 24 h; read-out: MIC levels after 24 hours of culture.

For the molecule `CC[C@H]1OC(=O)[C@H](C)[C@@H](O[C@H]2C[C@@](C)(OC)[C@@H](O)[C@H](C)O2)[C@H](C)[C@@H](O[C@@H]2O[C@H](C)C[C@H](N(C)C)[C@H]2O)[C@](C)(O)C[C@@H](C)C(=O)[C@H](C)[C@@H](O)[C@]1(C)O` [Erythromycin], the minimal inhibitory concentration (MIC) runs as follows: under setting [1], 512 µg/mL (≈ 698 µM); under setting [2], greater than 512 µg/mL.
As for Teicoplanin, the “MIC levels after 16 hours of culture” value (16 hours of culture) is 1 µg/mL. Where the note is “24 hours of culture”, the “MIC levels after 24 hours of culture” value came to 1 µg/mL.
`CN(C)[C@@H]1C(O)=C(C(N)=O)C(=O)[C@@]2(O)C(O)=C3C(=O)c4c(O)cccc4[C@@](C)(O)[C@H]3C[C@@H]12` [Tetracycline]: the MIC reads like this: under setting [1], 0.5 µg/mL (≈ 1.13 µM); under setting [2], 1 µg/mL (≈ 2.25 µM).
Consider `CN[C@H](CC(C)C)C(=O)N[C@H]1C(=O)N[C@@H](CC(N)=O)C(=O)N[C@H]2C(=O)N[C@H]3C(=O)N[C@H](C(=O)N[C@H](C(=O)O)c4cc(O)cc(O)c4-c4cc3ccc4O)[C@H](O)c3ccc(c(Cl)c3)Oc3cc2cc(c3O[C@@H]2O[C@H](CO)[C@@H](O)[C@H](O)[C@H]2O[C@H]2C[C@](C)(N)[C@H](O)[C@H](C)O2)Oc2ccc(cc2Cl)[C@H]1O` [Vancomycin], for which the MIC reads like this: (Enterococcus faecalis, ATCC51299, 16 h, read-out: MIC levels after 16 hours of culture) 16 µg/mL (≈ 11 µM); (Enterococcus faecalis, ATCC51299, 24 h, read-out: MIC levels after 24 hours of culture) 64 µg/mL (≈ 44.2 µM).
On to `CC[C@H](C)[C@H](N)C1=N[C@H](C(=O)N[C@@H](CC(C)C)C(=O)N[C@H](CCC(=O)O)C(=O)N[C@H](C(=O)N[C@H]2CCCCNC(=O)[C@H](CC(N)=O)NC(=O)[C@@H](CC(=O)O)NC(=O)[C@H](Cc3cnc[nH]3)NC(=O)[C@@H](Cc3ccccc3)NC(=O)[C@H]([C@@H](C)CC)NC(=O)[C@@H](CCCN)NC2=O)[C@@H](C)CC)CS1` [Bacitracin] ({Ileψ(thiazoline)Cys}-L[dE]IK[dOrn]I[dF]H[dD]N; lactam 4-C), for which the MIC under setting [1] was 64 µg/mL (≈ 45 µM) and the MIC under setting [2] turned out to be 128 µg/mL (≈ 90 µM).
`CC1(C)S[C@@H]2[C@H](NC(=O)[C@H](N)c3ccccc3)C(=O)N2[C@H]1C(=O)O` [Ampicillin]: the MIC under setting [1] is 0.5 µg/mL (≈ 1.43 µM) and the MIC under setting [2] is 0.5 µg/mL (≈ 1.43 µM).
For the molecule Gentamicin, the “MIC levels after 16 hours of culture” value (16 hours of culture) is greater than 512 µg/mL. For the same molecule, the “MIC levels after 24 hours of culture” value (24 hours of culture) is greater than 512 µg/mL.
Take `[H]/N=C(/N)N[C@H]1[C@H](O)[C@@H](O)[C@H](O[C@@H]2O[C@@H](C)[C@](O)(C=O)[C@H]2O[C@@H]2O[C@@H](CO)[C@H](O)[C@@H](O)[C@@H]2NC)[C@@H](N/C(N)=N\[H])[C@@H]1O` [Streptomycin]: the MIC was greater than 512 µg/mL under setting [1] and greater than 512 µg/mL under setting [2].
Consider `O=C(N[C@H](CO)[C@H](O)c1ccc([N+](=O)[O-])cc1)C(Cl)Cl` [Chloramphenicol], for which the minimal inhibitory concentration (MIC) came out at 64 µg/mL (≈ 198 µM) under setting [1] and 128 µg/mL (≈ 396 µM) under setting [2].
The matching figures for `Cc1onc(-c2ccccc2)c1C(=O)N[C@@H]1C(=O)N2[C@@H]1SC(C)(C)[C@@H]2C(=O)O` [Oxacillin]: 32 µg/mL (≈ 79.7 µM) and 64 µg/mL (≈ 159 µM).
